Test results: patent US8163713B2, “Trehalose compound and pharmaceutical comprising the compound” (Otsuka Chemical Co., Ltd., priority 2006, dated 2012)

Target: T1, human recombinant adenosine A3 receptors (Homo sapiens, UniProt P0DMS8)
T1 construct: host or cells: CHO-K1 (Chinese hamster ovary K1 cells)
T1 sequence (P0DMS8 1-318): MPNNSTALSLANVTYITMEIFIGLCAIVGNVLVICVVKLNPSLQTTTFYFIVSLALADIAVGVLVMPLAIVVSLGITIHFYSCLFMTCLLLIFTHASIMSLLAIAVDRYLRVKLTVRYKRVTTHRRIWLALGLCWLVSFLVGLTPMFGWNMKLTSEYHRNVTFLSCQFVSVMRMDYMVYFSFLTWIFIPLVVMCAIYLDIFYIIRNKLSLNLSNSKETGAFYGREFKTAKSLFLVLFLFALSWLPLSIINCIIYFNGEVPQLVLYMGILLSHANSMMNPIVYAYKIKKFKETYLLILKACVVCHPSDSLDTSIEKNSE
Experiment: Test for affinity for adenosine A3 receptor ([125I]AB-MECA binding to CHO-K1 cell membranes)
Settings: for Affinity 10 μM: 10 μM trehalose compound; for Affinity 10 μM / Affinity 3 μM: 0.5 nM [125I]AB-MECA, 60 min, 25° C.; for Affinity 3 μM: 3 μM trehalose compound; for IC50: [125I]AB-MECA displacement
Protocol: Specifically, ovarium K1 cells of a Chinese hamster (obtained from Euroscreen S. A.; hereunder referred to as “CHO-K1”) expressing human recombinant adenosine A3 receptors were cultured in a modified HEPES buffer free of Ca^2+ and Mg^2+. Subsequently, the cultured CHO-K1 was scraped and homogenized in 50 mM of ice-cooled Tris-HCl (pH 7.4). The resulting mixture was subjected to centrifugation at 48,000×g for 15 minutes to obtain a cell membrane pellet. The obtained cell membrane pellet was washed twice with another modified HEPES buffer, and then subjected again to centrifugation. The washed cell membrane pellet was suspended again in a small quantity of 50 mM Tris-HCl (pH 7.4).
The concentration of the adenosine A3 receptor in the obtained cell membrane pellet was measured as follows. A 0.5 nM amount of [^125I] […] Thereafter, 50 mM of ice-cooled Tris-HCl (pH 7.4) was added thereto to halt the reaction, and then the cell membrane pellet was filtrated out using a glass fiber filter. The filtered cell membrane pellet was washed 3 times with an ice-cooled buffer so as to remove excessive ligands. The radioactivity in the resulting cell membrane pellet on a filter was measured using a scintillation counter (Type 1470 Automatic Counter; PerkinElmer, Inc.).
Separately, in order to measure nonspecific bindings of [^125I] AB-MECA other than to an adenosine A3 receptor, 1 μM of […] (a selective radioagonist of A3 receptor N^6-(3-iodobenzyl)-5′-(N-[…]) adenosine) was further added to the obtained suspension of the cell membrane pellet, and the same measurement was carried out as in the aforesaid binding experiment. The average specific binding value of [^125I] AB-MECA to the adenosine A3 receptor was calculated based on the results obtained in the above experiment.
Further, in a Comparative Example, the same measurement was carried out with respect to the compounds taught in Non-Patent Document 1 and Non-Patent Document 2 (in the chemical formula of Table 1, R^1=R^3=octyl, R^2=R^4=heptyl, X=X′=OH, and Y=Y′═O).

SMILES | Affinity 10 μM | Affinity 3 μM | IC50 | Affinity 10 μM (listed as F-5) | Affinity 10 μM (listed as F-6)
CCCCCCCCC(O)C(CCCCCCC)C(=O)OCC1O[C@H](O[C@@H]2OC(COC(=O)C(CCCCCCC)C(O)CCCCCCCC)[C@@H](O)C(O)C2O)C(O)C(O)[C@@H]1O (some centres unmarked) [Comparative Example, reference compound] | 29 |  |  |  | 
CCCCCC[C@@H](O)[C@@H](CCCCC)C(=O)OC[C@H]1O[C@H](O[C@H]2O[C@H](COC(=O)[C@H](CCCCC)[C@H](O)CCCCCC)[C@@H](O)[C@H](O)[C@H]2O)[C@H](O)[C@@H](O)[C@@H]1O [Production Example F-1, 6,6′-bis-O-[(2R,3R)-3-hydroxy-2-pentylnonanoyl]-α,α′-trehalose] | 97 | 56 | 2610 nM |  | 
CCCCCC[C@H](O)[C@H](CCCCC)C(=O)OC[C@H]1O[C@H](O[C@H]2O[C@H](COC(=O)[C@@H](CCCCC)[C@@H](O)CCCCCC)[C@@H](O)[C@H](O)[C@H]2O)[C@H](O)[C@@H](O)[C@@H]1O [Production Example F-2, 6,6′-bis-O-[(2S,3S)-3-hydroxy-2-pentylnonanoyl]-α,α′-trehalose] | 86 | 57 |  |  | 
CCCCCC[C@H](O)[C@@H](CCCCC)C(=O)OC[C@H]1O[C@H](O[C@H]2O[C@H](COC(=O)[C@H](CCCCC)[C@@H](O)CCCCCC)[C@@H](O)[C@H](O)[C@H]2O)[C@H](O)[C@@H](O)[C@@H]1O [Production Example F-3, 6,6′-bis-O-[(2R,3S)-3-hydroxy-2-pentylnonanoyl]-α,α′-trehalose] | 100 | 59 |  |  | 
CCCCCC[C@@H](O)[C@H](CCCCC)C(=O)OC[C@H]1O[C@H](O[C@H]2O[C@H](COC(=O)[C@@H](CCCCC)[C@H](O)CCCCCC)[C@@H](O)[C@H](O)[C@H]2O)[C@H](O)[C@@H](O)[C@@H]1O [Production Example F-4, 6,6′-bis-O-[(2S,3R)-3-hydroxy-2-pentylnonanoyl]-α,α′-trehalose] | 91 | 32 |  |  | 
CCCCCCCC(O)C(CCCCCC)C(=O)OCC1OC(OC2OC(COC(=O)C(CCCCCC)C(O)CCCCCCC)C(O)C(O)C2O)C(O)C(O)C1O [Production Example F-5, 6,6′-bis-O-[(2R,3R)-2-hexyl-3-hydroxydecanoyl]-α,α′-trehalose] |  |  |  | 83 | 
CCCCCCCC(O)C(CCCCCC)C(=O)OCC1OC(OC2OC(COC(=O)C(CCCCCC)C(O)CCCCCCC)C(O)C(O)C2O)C(O)C(O)C1O [Production Example F-6, 6,6′-bis-O-[(2S,3S)-2-hexyl-3-hydroxydecanoyl]-α,α′-trehalose] |  |  |  |  | 59
CCCCCCC(OC)C(CCCCC)C(=O)OCC1OC(OC2OC(COC(=O)C(CCCCC)C(CCCCCC)OC)C(O)C(O)C2O)C(O)C(O)C1O [Production Example F-7, 6,6′-bis-O-[(2R,3R)-3-methoxy-2-pentylnonanoyl]-α,α′-trehalose] | 96 | 84 |  |  | 
CCCCC(CCCC)C(=O)OC[C@H]1O[C@H](O[C@H]2O[C@H](COC(=O)C(CCCC)CCCC)[C@@H](O)[C@H](O)[C@H]2O)[C@H](O)[C@@H](O)[C@@H]1O [Production Example F-8, 6,6′-bis-O-(2-butylhexanoyl)-α,α′-trehalose] | 72 | 14 |  |  | 
CCCCCC(CCCCC)C(=O)OC[C@H]1O[C@H](O[C@H]2O[C@H](COC(=O)C(CCCCC)CCCCC)[C@@H](O)[C@H](O)[C@H]2O)[C@H](O)[C@@H](O)[C@@H]1O [Production Example F-9, 6,6′-bis-O-(2-pentylheptanoyl)-α,α′-trehalose] | 99 | 97 | 459 nM |  | 
CCCCCCC(CCCCCC)C(=O)OCC1OC(OC2OC(COC(=O)C(CCCCCC)CCCCCC)C(O)C(O)C2O)C(O)C(O)C1O (stereo not drawn) [Production Example F-10, 6,6′-bis-O-(2-hexyloctanoyl)-α,α′-trehalose] | 66 | 65 |  |  | 
CCCCCCCC(CCCCC)C(=O)OC[C@H]1O[C@H](O[C@H]2O[C@H](COC(=O)C(CCCCC)CCCCCCC)[C@@H](O)[C@H](O)[C@H]2O)[C@H](O)[C@@H](O)[C@@H]1O (stereo partly drawn) [Production Example F-11, 6,6′-bis-O-(2-pentylnonanoyl)-α,α′-trehalose] | 62 | 74 |  |  | 
CCCCC[C@@H](O)[C@@H](CCCC)C(=O)OC[C@H]1O[C@H](O[C@H]2O[C@H](COC(=O)[C@@H](CCCC)[C@@H](O)CCCCC)[C@@H](O)[C@H](O)[C@H]2O)[C@H](O)[C@@H](O)[C@@H]1O [Production Example F-12, 6-O-[(2R,3R)-2-butyl-3-hydroxyoctanoyl]-6′-O-[(2S,3S)-2-butyl-3-hydroxyoctanoyl]-α,α′-trehalose] | 48 |  |  |  | 
CCCCCC[C@@H](O)[C@@H](CCCCC)C(=O)OC[C@H]1O[C@H](O[C@H]2O[C@H](COC(=O)[C@@H](CCCCC)[C@@H](O)CCCCCC)[C@@H](O)[C@H](O)[C@H]2O)[C@H](O)[C@@H](O)[C@@H]1O [Production Example F-13, 6-O-[(2R,3R)-3-hydroxy-2-pentylnonanoyl]-6′-O-[(2S,3S)-3-hydroxy-2-pentylnonanoyl]-α,α′-trehalose] | 97 | 54 | 2750 nM |  | 
CCCCCCC[C@@H](O)[C@@H](CCCCCC)C(=O)OC[C@H]1O[C@H](O[C@H]2O[C@H](COC(=O)[C@@H](CCCCCC)[C@@H](O)CCCCCCC)[C@@H](O)[C@H](O)[C@H]2O)[C@H](O)[C@@H](O)[C@@H]1O [Production Example F-14, 6-O-[(2R,3R)-3-hydroxy-2-hexyldecanoyl]-6′-O-[(2S,3S)-3-hydroxy-2-hexyldecanoyl]-α,α′-trehalose] | 77 |  |  |  | 
CCCCCC[C@@H](O)[C@@H](CCCCC)C(=O)NC[C@H]1O[C@H](O[C@H]2O[C@H](CNC(=O)[C@H](CCCCC)[C@H](O)CCCCCC)[C@@H](O)[C@H](O)[C@H]2O)[C@H](O)[C@@H](O)[C@@H]1O [Production Example F-15, 6,6′-bis-N-[(2R,3R)-3-hydroxy-2-pentylnonanoylamino]-6,6′-dideoxy-α,α′-trehalose] | 69 | 29 |  |  | 
CCCCCCC(OC)C(CCCCC)C(=O)NCC1OC(OC2OC(CNC(=O)C(CCCCC)C(CCCCCC)OC)C(O)C(O)C2O)C(O)C(O)C1O [Production Example F-16, 6,6′-bis-N-[(2R,3R)-3-methoxy-2-pentylnonanoylamino]-6,6′-dideoxy-α,α′-trehalose] | 96 | 57 |  |  | 
CCCCCCC(CCCCCC)C(=O)NCC1OC(OC2OC(CNC(=O)C(CCCCCC)CCCCCC)C(O)C(O)C2O)C(O)C(O)C1O (stereo not drawn) [Production Example F-17, 6,6′-bis-N-(2-hexyloctanoylamino)-6,6′-dideoxy-α,α′-trehalose] |  | 22 |  |  | 
CCCCCCCC(CCCCC)C(=O)NCC1OC(OC2OC(CNC(=O)C(CCCCC)CCCCCCC)C(O)C(O)C2O)C(O)C(O)C1O (stereo not drawn) [Production Example F-18, 6,6′-bis-N-(2-pentylnonanoylamino)-6,6′-dideoxy-α,α′-trehalose] | 89 | 33 |  |  | 
